Among the data in ChEMBL document CHEMBL2062415, “Steroids from Commiphora mukul display antiproliferative effect against human prostate cancer PC3 cells via induction of apoptosis” (Bioorg Med Chem Lett, 2012) are Activity, viability and IC50 values, retold here.

pIC50: −log10 of the molar value.

One may read the pIC50 as the negative decadic logarithm of the IC50, by convention in mol/L.

The subject of experiment [1] is PC-3. The experiment can be described thus: Induction of apoptosis in human PC3 cells assessed as necrotic cells at 40 uM after 48 hrs by annexinV/propidium iodide staining-based FITC analysis relative to control. Format: functional.
Experiment [2] concerns PC-3. The experiment can be described thus: Cell cycle arrest in human PC3 cells assessed as accumulation at S phase at 10 uM after 48 hrs by propidium iodide staining-based flow cytometric analysis relative to control. The format is functional.
Experiment [3] concerns PC-3. The experiment can be described thus: Induction of apoptosis in human PC3 cells assessed as late apoptotic cells at 20 uM after 48 hrs by annexinV/propidium iodide staining-based FITC analysis relative to control. Format: functional.
The subject of experiment [4] is PC-3. Kind of experiment: Induction of apoptosis in human PC3 cells assessed as late apoptotic cells at 10 uM after 48 hrs by annexinV/propidium iodide staining-based FITC analysis relative to control. Format: functional.
In experiment [5] the test system is PC-3. The experiment can be described thus: Cytotoxicity against human PC3 cells assessed as cell viability at 10 uM after 24 hrs by MTT assay. The format is functional. The conditions noted are these: PC-3, 24 h, read-out: Activity. In general terms: Tetrazolium assays rely on reduction of a dye to a coloured formazan, in cell work by metabolically active cells.

Experiment [6] deals with PC-3. Kind of experiment: Cell cycle arrest in human PC3 cells assessed as accumulation at G2/M phase at 20 uM after 48 hrs by propidium iodide staining-based flow cytometric analysis relative to control. Format: functional.
For experiment [7], the system named is K562. Kind of experiment: Cytotoxicity against human K562 cells assessed as cell viability at 10 uM after 24 hrs by MTT assay. The format is functional. To be noted: K562, 24 h, read-out: Activity.
Experiment [8] deals with PC-3. The experiment can be described thus: Induction of apoptosis in human PC3 cells assessed as late apoptotic cells at 40 uM after 48 hrs by annexinV/propidium iodide staining-based FITC analysis relative to control. Format: functional.
Experiment [9] concerns PC-3. Kind of experiment: Induction of apoptosis in human PC3 cells assessed as early apoptotic cells at 10 uM after 48 hrs by annexinV/propidium iodide staining-based FITC analysis relative to control. Format: functional.
For experiment [10], the system named is PC-3. The experiment can be described thus: Cytotoxicity against human PC3 cells after 24 hrs by MTT assay. Format: functional, cell-based. The conditions noted are these: PC-3, 24 h.
The subject of experiment [11] is PC-3. The experiment can be described thus: Cell cycle arrest in human PC3 cells assessed as accumulation at G0/G1 phase at 20 uM after 48 hrs by propidium iodide staining-based flow cytometric analysis relative to control. The format is functional.
Experiment [12] has as its system PC-3. Kind of experiment: Cell cycle arrest in human PC3 cells assessed as accumulation at G2/M phase at 40 uM after 48 hrs by propidium iodide staining-based flow cytometric analysis relative to control. The format is functional. On the technique in general: Flow cytometry measures light scatter and fluorescence of single cells or particles in a stream.
Experiment [13] has as its system PC-3. Kind of experiment: Cell cycle arrest in human PC3 cells assessed as accumulation at G2/M phase at 10 uM after 48 hrs by propidium iodide staining-based flow cytometric analysis relative to control. The format is functional.
The test system of experiment [14] is PC-3. The experiment can be described thus: Cell cycle arrest in human PC3 cells assessed as accumulation at G0/G1 phase at 40 uM after 48 hrs by propidium iodide staining-based flow cytometric analysis relative to control. The format is functional.
Experiment [15] has as its system PC-3. The experiment can be described thus: Induction of apoptosis in human PC3 cells assessed as early apoptotic cells at 40 uM after 48 hrs by annexinV/propidium iodide staining-based FITC analysis relative to control. Format: functional.
The test system of experiment [16] is PC-3. Kind of experiment: Induction of apoptosis in human PC3 cells assessed as early apoptotic cells at 20 uM after 48 hrs by annexinV/propidium iodide staining-based FITC analysis relative to control. The format is functional.
The subject of experiment [17] is DU-145. Kind of experiment: Cytotoxicity against human DU145 cells after 24 hrs by MTT assay. The conditions noted are these: DU-145, 24 h. The format is functional, cell-based.
For experiment [18], the system named is PC-3. The experiment can be described thus: Cell cycle arrest in human PC3 cells assessed as accumulation at G0/G1 phase at 10 uM after 48 hrs by propidium iodide staining-based flow cytometric analysis relative to control. The format is functional.
The test system of experiment [19] is PC-3. The experiment can be described thus: Cell cycle arrest in human PC3 cells assessed as accumulation at S phase at 20 uM after 48 hrs by propidium iodide staining-based flow cytometric analysis relative to control. Format: functional.
Experiment [20] relates to MCF7. The experiment can be described thus: Cytotoxicity against human MCF7 cells assessed as cell viability at 10 uM after 24 hrs by MTT assay. The format is functional. To be noted: MCF7, 24 h, read-out: Activity.
In experiment [21] the test system is PC-3. The experiment can be described thus: Induction of apoptosis in human PC3 cells assessed as necrotic cells at 20 uM after 48 hrs by annexinV/propidium iodide staining-based FITC analysis relative to control. Format: functional.
In experiment [22] the test system is MCF7. The experiment can be described thus: Cytotoxicity against human MCF7 cells after 24 hrs by MTT assay. The format is functional, cell-based. To be noted: MCF7, 24 h.
In experiment [23] the test system is PC-3. Kind of experiment: Induction of apoptosis in human PC3 cells assessed as necrotic cells at 10 uM after 48 hrs by annexinV/propidium iodide staining-based FITC analysis relative to control. Format: functional.
The test system of experiment [24] is K562. Kind of experiment: Cytotoxicity against human K562 cells after 24 hrs by MTT assay. The format is functional, cell-based. To be noted: K562, 24 h.
Experiment [25] relates to PC-3. Kind of experiment: Cell cycle arrest in human PC3 cells assessed as accumulation at S phase at 40 uM after 48 hrs by propidium iodide staining-based flow cytometric analysis relative to control. Format: functional.
The subject of experiment [26] is PC-3. Kind of experiment: Induction of apoptosis in human PC3 cells assessed as necrotic cells at 30 uM after 48 hrs by annexinV/propidium iodide staining-based FITC analysis relative to control. Format: functional.
Experiment [27] deals with PC-3. Kind of experiment: Induction of apoptosis in human PC3 cells assessed as late apoptotic cells at 30 uM after 48 hrs by annexinV/propidium iodide staining-based FITC analysis relative to control. Format: functional.
Experiment [28] relates to PC-3. Kind of experiment: Cell cycle arrest in human PC3 cells assessed as accumulation at G0/G1 phase at 30 uM after 48 hrs by propidium iodide staining-based flow cytometric analysis relative to control. The format is functional.
Experiment [29] concerns PC-3. The experiment can be described thus: Cell cycle arrest in human PC3 cells assessed as accumulation at G2/M phase at 30 uM after 48 hrs by propidium iodide staining-based flow cytometric analysis relative to control. Format: functional.
Experiment [30] concerns PC-3. Kind of experiment: Cell cycle arrest in human PC3 cells assessed as accumulation at S phase at 30 uM after 48 hrs by propidium iodide staining-based flow cytometric analysis relative to control. Format: functional.
The subject of experiment [31] is PC-3. Kind of experiment: Cell cycle arrest in human PC3 cells assessed as accumulation at G0/G1 phase after 48 hrs by propidium iodide staining-based flow cytometric analysis. The format is functional.
Experiment [32] has as its system PC-3. Kind of experiment: Induction of apoptosis in human PC3 cells assessed as early apoptotic cells at 30 uM after 48 hrs by annexinV/propidium iodide staining-based FITC analysis relative to control. The format is functional.

With `CC[C@H](/C=C/[C@@H](C)[C@H]1CC[C@H]2[C@@H]3CC=C4C[C@@H](O)CC[C@]4(C)[C@H]3CC[C@]12C)C(C)C` [STIGMASTEROL], the Activity in experiment [1] is reported as 2.07%; in experiment [2] it was 26.9%; in [3], 3.77%; in [4], 3.18%; in experiment [6] it was 18.19%; in experiment [8] it was 5.42%. The Activity in [9] was 2.78%; in experiment [11], 51.41%; in experiment [12], 21.03%; in [13] it was 21.03%; in experiment [14], 50.58%; in [15], 2.73%. The Activity in [16] worked out at 2.3%; in experiment [18] it was 52.07%; in experiment [19] it was 30.4%; in experiment [21], 1.51%; in [23], 1.05%; in experiment [25], 36.4%. Further, the viability at 10 µM in experiment [5] is 60%; in experiment [7], 43%; in [20], 68%. Further, the pIC50 in experiment [10] was 4.74; in [17], 4.64; in [22], 4.67; in [24] it was 4.95.

Take `CC[C@H](/C=C/[C@@H](C)[C@H]1CC[C@H]2[C@@H]3CC=C4C[C@@H](O)CC[C@]4(C)[C@H]3[C@H](O)C[C@]12C)C(C)C`: the Activity in experiment [26] is recorded as 1.41%; in experiment [1], 1.52%; in [3], 1.91%; in [27] it was 2.95%; in [6], 18.47%; in experiment [8], 2.49%. Also, the Activity in [28] stood at 70.27%; in experiment [11], 59.89%; in experiment [12] it was 12.39%; in experiment [14], 76.37%; in experiment [15], 1.32%; in experiment [16] it was 1.77%. Further, the Activity is 21.63% in [19]; 13.33% in experiment [29]; 0.96% in [21]; 16.4% in experiment [30]; “Dose-dependent effect” in experiment [31]; 11.24% in experiment [25]. For the same compound, the Activity in experiment [32] was determined as 1.14%. Moreover, the viability at 10 µM in experiment [5] worked out at 94.5%; in [7], 43%; in experiment [20], 68%. Further, the pIC50 in [10] is 4.49; in experiment [17], 4.33; in experiment [22], 4.87; in experiment [24] it was 5.14.

Consider `COc1cccc2c1C(=O)c1c(O)c3c(c(O)c1C2=O)C[C@@](O)(C(=O)CO)C[C@@H]3O[C@H]1C[C@H](N)[C@H](O)[C@H](C)O1` [DOXORUBICIN], for which the pIC50 in experiment [10] was 5.07; in [17] it was 4.88; in [22] it was 5.86; in experiment [24] it was 5.42.

As to `C/C=C1\C(=O)C[C@H]2[C@@H]3CCC4=CC(=O)CC[C@]4(C)[C@H]3CC[C@]12C` [GUGGULSTERONE], the viability at 10 µM in [5] is 80%; in experiment [7] it was 84%; in [20], 65%.
